Here are results for 16 compounds from patent publication US5434159A, “6,11-cyclyl-1,2,3,4,5,6,11,11a-octahydrobenzo[b]quinolines and compositions and method of use thereof” (Sterling Winthrop Inc., priority 1994, dated 1995).

The subject of test [1] is NMDA-induced neurotoxicity in cultured cortical neurons. Description: Antagonism of NMDA-induced Neurotoxicity in Cultured Neurons (LDH activity). It is filed as cell-based, Swiss-Webster mice. The note with it: 500 μM NMDA for 30 minutes, LDH 24 hours after removal, day 13 cultured cortical neurons. The protocol:
Antagonism of NMDA-induced Neurotoxicity in Cultured Neurons
Preparation of cultured cortical neurons
Pregnant, Swiss-Webster mice were obtained from Taconic 0 Farms (Germantown, N.Y.) and sacrificed 16 days post conception. Fetuses were removed and placed in a sterile dish containing Hank's balanced salt solution (HBSS), pH 7.4. Brain cortices were dissected, meninges were removed, the tissue was minced and placed into a solution of HBSS containing 0.25% (w/v) trypsin at 37° C. for 15 minutes. Tissue was then triturated with a sterile pasteur pipet, diluted with minimal essential media (Gibco 330-1430), pH 7.4, supplemented with 10% horse serum, 10% fetal calf serum, 2 mM l-glutamine, 21 mM d-glucose, 2.2 g/L sodium bicarbonate, 1000 U/ml penicillin, and 1,000 μg/ml streptomycin. Cells were plated onto Falcon primaria 96 well plates at a final density of 50,000 cells/well and incubated at 37° C. in the presence of 5% (v/v) carbon dioxide. After 5 days, plating media was replaced with maintenance media containing minimal essential media (Gibco 330-1430), pH 7.4, supplemented with 10% horse serum, […], 21 mM d-glucose, 2.2 g/l sodium bicarbonate, 1,000 U/ml penicillin, 1,000 μg/ml streptomycin, and 10 μM cytosine arabinoside. On days 7 and 10, media was replaced with maintenance media as above lacking the cytosine arabinoside. Experiments were conducted on day 13.
Neuroprotection Assessment
Day 13 cultured cortical neurons were washed twice with minimal essential media, pH 7.4 and then exposed for 30 minutes to 500 μM N-methyl-D-aspartic acid (NMDA) with or without varying concentrations of test agents. Dizocilpine (MK-801) at a final concentration of 10 μM MK-801 was routinely included as a positive control. MK-801 and test agents were prepared in minimal essential media supplemented with 21 mM d-glucose and 2.2 g/L sodium bicarbonate (MEM). After 30 minutes, media was replaced with MEM alone. Exposure of neurons to test agents was limited to the NMDA treatment period. […]

Test [2] concerns the target PCP recognition sites (PCP receptor). Briefly: [^3 H]TCP Radioreceptor Assay (internal screen). The note with it: whole rat brain membranes, [^3 H]TCP approx. 1 nM, room temperature 25 min; mean of at least two separate determinations. The test is classed as binding. The protocol: [^3 H]TCP Radioreceptor Assay (internal screen)
[^3 H]TCP binding to PCP recognition sites was performed as described by Vignon et al. Brain Research 1983, 280, 194-197. Male Spmgue-Dawley rats were sacrificed by decapitation, and whole brains were homogenized in 10 volumes (wt/vol) of cold Tris-HCl buffer (50 mM, pH 7.7) using a Brinkmann Polytron (setting 6, 30 sec). The homogenate was centrifuged at 40,000×g for 10 min at 4° C. The supernatant was decanted, and the homogenization and centrifugation steps were repeated twice as described above. Following this, the pellet was resuspended in Tris-HCl (5 mM, pH 7.7) at a tissue concentration of 0.5-0.75 g/ml, and one ml aliquots were frozen at -70° C. unto use. The binding characteristics for PCP recognition sites were not altered by the freezing of membrane suspensions.
On the day of the assay, membrane aliquots were thawed, resuspended in fresh 5 mM Tris-HCl buffer at a tissue concentration of 1 mg/ml, and stored on ice until use. Each assay tube contained 100 μl of [^3 H]TCP at a final concentration of approximately 1 nM, 100 μl of various concentrations of the compounds of interest, 500 μl of the tissue suspension and 300 μ of buffer to a final assay volume of 1 ml and a final protein concentration of 0.5 mg/tube. Non-specific binding was defined by addition of a final concentration of 100 μM PCP to blank tubes. All tubes were incubated at room temperature for 25 min before termination of the reaction by rapid filtration over Whatman GF/B glass fiber filters that had been presoaked in a solution of 0.5% polyethyleneimine for at least 1 hr prior to use. Filters were washed with three 4 ml volumes of cold Tris buffer. Following addition of scintillation cocktail, the amount of bound radioactivity was determined by liquid scintillation spectrometry using a Beckman LS 5000 TA liquid scintillation counter with an efficiency for tritium of approximately 55%. Inhibition constants (Ki values) were calculated using the EBDA/LIGAND program (McPherson, J. Pharmacol. Meth. 1985, 14, 213-228), purchased from Elsevier/Biosoft, Inc. Results are reported as Ki values which are expressed as the mean of at least two separate determinations.

Test [3] relates to PCP recognition sites (PCP receptor). Briefly: [^3 H]TCP Radioreceptor Assay (external screen). The test is classed as binding. The note with it: @10 μM; whole rat forebrain membranes, 25° C., 60 minutes. On the procedure:
Representative compounds of the invention were also tested in an external [^3 H]TCP radioreceptor assay using the following protocol:
[^3 H]TCP Radioreceptor Assay (external screen)
A procedure similar to that described above for the [^3 H]TCP radioreceptor assay (internal screen) was utilized except that the whole rat forebrain membranes were incubated at 25° C. for 60 minutes rather than at room temperature for 25 minutes, before termination of the reaction. The results are reported as a percent (%) inhibition of binding at 10 μM.

Counter-ions that a name gives are not always drawn.

Compound “6,11 [2',3']tetrahydrofuranyl-1,2,3,4,5,6,11,11a-octahydrobenzo [b]quinolizine hydrobromide [Example 8]” showed an IC50 in test [1] of 12200 nM. Further, the inhibition constant (Ki) in test [2] was 606 nM.
With “6,11 [2',3']tetrahydropyranyl-1,2,3,4,5,6,11,11a-octahydrobenzo[b]quinolizine hydrobromide [Example 7]”, in test [2], affinity was put at a Ki of 1420 nM.
The compound `c1ccc2c(c1)C1C3CCCCC3C2N2CCCCC12` (centres unmarked) [Example 1a, 6,11 [1',2']cyclohexyl-1,2,3,4,5,6,11:11a-octahydrobenzo[b]quinolizine] gave a Ki in test [2] of 134 nM.
As to `c1ccc2c(c1)C1c3ccccc3C2N2CCCCC12` (centres unmarked) [Example 1b, 6,11 [1',2']benzeno-1,2,3,4,5,6,11,11a-octahydrobenzo[b]quinolizine], the Ki in test [2] stood at 333 nM.
Consider `CC12c3ccccc3C(C3CCCC31)N1CCCCC12` (centres unmarked) [Example 2, 11-methyl-6,11 [1',2']cyclopentyl-1,2,3,4,5,6,11,11a-octahydrobenzo[b]quinolizine], for which, in test [2], the affinity, expressed as Ki, was 40 nM.
In test [2], `Oc1ccc2c(c1)C1C3CCCC3C2C2CCCCN21` (centres unmarked) [Example 3b, 8-hydroxy-6,11 [1',2']cyclopentyl-1,2,3,4,5,6,11,11a-octahydrobenzo[b]quinolizine hydrobromide] showed a Ki of 27.9 nM.
For the compound `Brc1ccc2c(c1)C1C3CCCC3C2N2CCCCC12` (centres unmarked) [Example 4, 9-bromo-6,11 [1',2']cyclopentyl-1,2,3,4,5,6,11,11a-octahydrobenzo[b]quinolizine hydrobromide], the affinity in test [2] corresponds to a Ki of 43.7 nM.
`Fc1ccc2c(c1)C1C3CCCC3C2N2CCCCC12` (centres unmarked) [Example 5, 9-fluoro-6,11[1',2']cyclopentyl-1,2,3,4,5,6,11,11a-octahydrobenzo[b]quinolizine fumarate] came in with a Ki in test [2] of 20 nM.
`Nc1ccc2c(c1)C1C3CCCC3C2N2CCCCC12` (centres unmarked) [Example 6, 9-amino-6,11 [1',2']cyclopentyl-1,2,3,4,5,6,11,11a-octahydrobenzo[b]quinolizine] came in with a Ki in test [2] of 11.8 nM.
Regarding `c1ccc2c(c1)C1C3CCCC3C2N2CCCCC12` (centres unmarked) [Example 9a, 6,11 [1',2']cyclopentyl-1,2,3,4,5,6,11,11a-octahydrobenzo[b]quinolizine hydrobromide], the “[^3 H]TCP (external screen) Percent inhibition” value in test [3] was determined as 100%. This compound also had an IC50 in test [1] (Mus musculus, Cortical neurone) of 100 nM. Also, in test [2], the Ki came to 15.4 nM.
`Oc1ccc2c(c1)C1C3CCCC3C2N2CCCCC12` (centres unmarked) [Example 10b, 9-hydroxy-6:11 [1',2']cyclopentyl-1,2,3,4,5,6,11,11a-octahydrobenzo [b]quinolizine hydrobromide] showed an IC50 in test [1] (Mus musculus, Cortical neurone) of 42 nM. In test [2], this compound came in with a Ki of 2.31 nM.
In test [2], `c1ccc2c(c1)C1C3CCCCC3C2N2CCCCC12` (centres unmarked) [Example 11, 6,11 [1',2']cyclohexyl-1,2,3,4,5,6,11,11a-octahydrobenzo[b]quinolizine] gave a Ki of 219 nM.
In the case of `Oc1cccc2c1C1C3CCCC3C2N2CCCCC12` (centres unmarked) [Example 12b, 10-hydroxy-6,11 [1',2']cyclopentyl-1,2,3,4,5,6,11,11a-octhydrobenzo[b]quinolizine hydrobromide], affinity in test [2] was put at a Ki of 2.29 nM.
Take `CC12c3ccccc3C(C3CCCC31)C1CCCCN12` (centres unmarked) [Example 13, 6-methyl-6,11 [1',2']cyclopentyl-1,2,3,4,5,6,11,11a-octahydrobenzo [b]quinolizine]: the Ki in test [2] was determined as 8.87 nM.
In test [2], `[O-][N+]12CCCCC1C1c3ccccc3C2C2CCCC21` (centres unmarked) [Example 14, 6,11 [1',2']cyclopentyl-1,2,3,4,5,6,11,11a-octahydrobenzo[b]quinolizine-5-oxide] yielded a Ki of 33.1 nM.
In the case of `C[N+]12CCCCC1C1c3ccccc3C2C2CCCC21` (centres unmarked) [Example 15, 5-methyl-6,11 [1',2']cyclopentyl-1,2,3,4,5,6,11,11a-octahydrobenzo[b]quinolizinium bromide], in test [2], the Ki worked out at 22.3 nM.
